# Reference: patent publication US12377175B2, “Trifunctional constructs with tunable pharmacokinetics useful in imaging and anti-tumor therapies” (Cornell University, priority 2016, dated 2025)
# Where “and” joins values, the source holds several entries; their conditions need not be identical. Identical values can stand only once.
# Tested on: LNCaP xenograft tumor-bearing mice
# Assay: Biodistribution of 225Ac-macropa-RPS-070 in LNCaP xenograft mice
# Type: in vivo, mouse
# Method: Cell Culture. […] Cell culture supplies were from Invitrogen unless otherwise noted.
# Inoculation of Mice with Xenografts. All animal studies were approved by the Institutional Animal Care and Use Committee of Weill Cornell Medicine and were undertaken in accordance with the guidelines set forth by the USPHS Policy on Humane Care and Use of Laboratory Animals. Animals were housed under standard conditions in approved facilities with 12 h light/dark cycles. Food and water was provided ad libitum throughout the course of the studies. Hairless male nu/nu mice were purchased from the Jackson Laboratory. For inoculation in mice, LNCaP cells were suspended at 4×10^7 cells/mL in a 1:1 mixture of PBS:Matrigel (BD Biosciences). Each mouse was injected in the left flank with 0.25 mL of the cell suspension. Biodistributions were conducted when tumors were in the range 100-400 mm^3.
# Biodistribution of […] in LNCaP xenograft mice. Fifteen LNCaP xenograft tumor-bearing mice (5 per time point) were injected intravenously with a bolus injection of 85-95 kBq and 100 ng ([…]) of each ligand. The mice were sacrificed by cervical dislocation at 4, 24 and 96 h post injection. A blood sample was removed, and a full biodistribution study was conducted on the following organs (with contents): heart, lungs, liver, small intestine, large intestine, stomach, spleen, pancreas, kidneys, muscle, bone, and tumor. Tissues were weighed and counted on a 2470 Wizard Automatic Gamma Counter (Perkin Elmer). 1% ID/mL samples were counted prior to and following each set of tissue samples to enable decay correction to be undertaken. Counts were corrected for decay and for activity injected, and tissue uptake was expressed as percent injected dose per gram (% ID/g). Standard error measurement was calculated for each data point.
# [1] = 4 h after i.v. injection, n = 5
smiles,measurement,setting,value
O=C(O)CC[C@H](NC(=O)N[C@@H](CCCCNC(=O)Nc1cccc(-c2cn(CCOCCOCCOCCOCCOCCOCCC(=O)N[C@@H](CCCCNC(=S)Nc3cc(CN4CCOCCOCCN(Cc5cccc(C(=O)[O-])n5)CCOCCOCC4)nc(C(=O)[O-])c3)C(=O)N[C@@H](CCCCNC(=O)Cc3ccc(I)cc3)C(=O)O)nn2)c1)C(=O)O)C(=O)O.[225Ac+3] [225Ac-macropa-RPS-070],"Organ distribution, Blood, individual mice 1-5",4 h after i.v. injection,0.9065 % ID/g and 0.5525 % ID/g and 1.118 % ID/g and 0.8276 % ID/g and 0.6564 % ID/g
same,"Organ distribution, Bone, individual mice 1-5",4 h after i.v. injection,1.149 % ID/g and 1.123 % ID/g and 1.487 % ID/g and 0.9204 % ID/g and 1.155 % ID/g
same,"Organ distribution, Heart, individual mice 1-5",4 h after i.v. injection,0.7576 % ID/g and 0.6532 % ID/g and 0.774 % ID/g and 0.7515 % ID/g and 0.6565 % ID/g
same,"Organ distribution, Kidneys, individual mice 1-5",4 h after i.v. injection,65.5884 % ID/g and 20.5274 % ID/g and 108.233 % ID/g and 33.654 % ID/g and 33.0707 % ID/g
same,"Organ distribution, Large Intestine, individual mice 1-5",4 h after i.v. injection,1.363 % ID/g and 0.6516 % ID/g and 1.274 % ID/g and 0.9166 % ID/g and 0.819 % ID/g
same,"Organ distribution, Liver, individual mice 1-5",4 h after i.v. injection,1.622 % ID/g and 1.346 % ID/g and 1.742 % ID/g and 1.681 % ID/g and 1.3957 % ID/g
same,"Organ distribution, Lungs, individual mice 1-5",4 h after i.v. injection,0.9956 % ID/g and 0.6067 % ID/g and 1.2979 % ID/g and 0.9859 % ID/g and 0.8866 % ID/g
same,"Organ distribution, Muscle, individual mice 1-5",4 h after i.v. injection,0.6801 % ID/g and 0.8058 % ID/g and 0.7282 % ID/g and 0.6767 % ID/g and 0.6562 % ID/g
same,"Organ distribution, Pancreas, individual mice 1-5",4 h after i.v. injection,0.5549 % ID/g and 0.4164 % ID/g and 0.5532 % ID/g and 0.4675 % ID/g and 0.6604 % ID/g
same,"Organ distribution, Small Intestine, individual mice 1-5",4 h after i.v. injection,0.1998 % ID/g and 0.1628 % ID/g and 0.3104 % ID/g and 0.2441 % ID/g and 0.1709 % ID/g
same,"Organ distribution, Spleen, individual mice 1-5",4 h after i.v. injection,1.409 % ID/g and 0.708 % ID/g and 1.613 % ID/g and 1.108 % ID/g and 0.8756 % ID/g
same,"Organ distribution, Stomach, individual mice 1-5",4 h after i.v. injection,0.3396 % ID/g and 0.2471 % ID/g and 0.3042 % ID/g and 0.4109 % ID/g and 0.2122 % ID/g
same,"Organ distribution, Tumor, individual mice 1-5",4 h after i.v. injection,6.732 % ID/g and 10.7309 % ID/g and 23.8367 % ID/g and 15.3682 % ID/g and 7.504 % ID/g
same,"Organ distribution, Blood, Mean",[1],0.8122 % ID/g
same,"Organ distribution, Bone, Mean",[1],1.167 % ID/g
same,"Organ distribution, Heart, Mean",[1],0.7189 % ID/g
same,"Organ distribution, Kidneys, Mean",[1],52±16 % ID/g and 52.2146 % ID/g
same,"Organ distribution, Large Intestine, Mean",[1],1.005 % ID/g
same,"Organ distribution, Liver, Mean",[1],1.557 % ID/g
same,"Organ distribution, Lungs, Mean",[1],0.9469 % ID/g
same,"Organ distribution, Muscle, Mean",[1],0.7094 % ID/g
same,"Organ distribution, Pancreas, Mean",[1],0.5305 % ID/g
same,"Organ distribution, Small Intestine, Mean",[1],0.2176 % ID/g
same,"Organ distribution, Spleen, Mean",[1],1.143 % ID/g
same,"Organ distribution, Stomach, Mean",[1],0.3028 % ID/g
same,"Organ distribution, Tumor, Mean",[1],13±3 % ID/g and 12.8342 % ID/g
same,"Organ distribution, Blood, individual mice 1-5",24 h after i.v. injection,0.3483 % ID/g and 0.3132 % ID/g and 0.2208 % ID/g and 0.2945 % ID/g and 0.277 % ID/g
same,"Organ distribution, Bone, individual mice 1-5",24 h after i.v. injection,1.273 % ID/g and 1.066 % ID/g and 0.8394 % ID/g and 1.006 % ID/g and 0.6976 % ID/g
same,"Organ distribution, Heart, individual mice 1-5",24 h after i.v. injection,0.5226 % ID/g and 0.5633 % ID/g and 0.4521 % ID/g and 0.4791 % ID/g and 0.4648 % ID/g
same,"Organ distribution, Kidneys, individual mice 1-5",24 h after i.v. injection,4.988 % ID/g and 4.257 % ID/g and 3.946 % ID/g and 3.665 % ID/g and 4.103 % ID/g
same,"Organ distribution, Large Intestine, individual mice 1-5",24 h after i.v. injection,0.133 % ID/g and 0.1259 % ID/g and 0.1325 % ID/g and 0.1343 % ID/g and 0.1318 % ID/g
same,"Organ distribution, Liver, individual mice 1-5",24 h after i.v. injection,1.578 % ID/g and 1.476 % ID/g and 1.138 % ID/g and 1.143 % ID/g and 1.485 % ID/g
same,"Organ distribution, Lungs, individual mice 1-5",24 h after i.v. injection,0.5378 % ID/g and 0.4508 % ID/g and 0.4608 % ID/g and 0.4286 % ID/g and 0.4483 % ID/g
same,"Organ distribution, Muscle, individual mice 1-5",24 h after i.v. injection,0.6119 % ID/g and 0.5149 % ID/g and 0.4483 % ID/g and 0.7803 % ID/g and 0.4458 % ID/g
same,"Organ distribution, Pancreas, individual mice 1-5",24 h after i.v. injection,0.3985 % ID/g and 0.3912 % ID/g and 0.5035 % ID/g and 0.3332 % ID/g and 0.3194 % ID/g
same,"Organ distribution, Small Intestine, individual mice 1-5",24 h after i.v. injection,0.08784 % ID/g and 0.09914 % ID/g and 0.08822 % ID/g and 0.09466 % ID/g and 0.1037 % ID/g
same,"Organ distribution, Spleen, individual mice 1-5",24 h after i.v. injection,0.6208 % ID/g and 0.6576 % ID/g and 0.6201 % ID/g and 0.5768 % ID/g and 0.5855 % ID/g
same,"Organ distribution, Stomach, individual mice 1-5",24 h after i.v. injection,0.1296 % ID/g and 0.1212 % ID/g and 0.1119 % ID/g and 0.1467 % ID/g and 0.1533 % ID/g
same,"Organ distribution, Tumor, individual mice 1-5",24 h after i.v. injection,11.6163 % ID/g and 9.269 % ID/g and 7.502 % ID/g and 4.414 % ID/g and 8.047 % ID/g
